Reference: US4487768A, “Cephem compounds” (Fujisawa Pharmaceutical Co., Ltd., priority 1982, dated 1984)
≈ marks a conversion by molar mass, not a printed value.

Assays:
Proteus mirabilis 18 = assay: Minimal inhibitory concentration, two-fold agar-plate dilution method; format: cell-based; details: HI-agar, 37° C., 20 hours, 10^8 viable cells per ml
Experimental: (§1) (A) Minimal inhibitory concentration 1 Test Method In vitro antibacterial activity was determined by the two-fold agar-plate dilution method as described below. One loopful of an overnight culture of each test strain in Trypticase-soy broth (10^8 viable cells per ml) was streaked on heart infusion agar (HI-agar) containing graded concentrations of representative test compound, and the minimal inhibitory concentration (MIC) was expressed in tems of μg/ml after incubation at 37° C. for 20 hours.

Proteus vulgaris 2 = assay: as above; format: cell-based; details: HI-agar, 37° C., 20 hours, 10^8 viable cells per ml
Experimental: as §1

[1] = Urinary excretion in rats after oral administration; format: in vivo; details: rat, oral 100 mg/kg, urine 0 to 6 and 6 to 24 hours, bioassay, read-out: Urinary recovery in 24 hours (%)
Experimental: Urine of rats was collected with a urine collector at 0 to 6, and 6 to 24 hours after oral administration of 100 mg/kg of the test antibiotic. The antibiotic levels in the urine samples were bioassayed with the standard solution prepared with M/15 phosphate buffer (pH 7.0) and the urinary recovery in 24 hours was calculated.

in vivo = details: rat, po, 100 mg/kg
Experimental: Rats anesthetized with pentobarbital were fixed in supine position, and a polyethylene cannula was inserted into the bile duct. Bile samples were collected at 0 to 3, 3 to 6, and 6 to 24 hours after oral administration of 100 mg/kg of the test antibiotic. The antibiotic levels in the bile samples were bioassayed with the standard solutions prepared with M/15 phosphate buffer (pH 7.0) and the biliary recovery in 24 hours were calculated.

## [N-]=[N+]=NCC1=C(C(=O)O)N2C(=O)C(NC(=O)/C(=N\OCC(=O)O)c3nsc(N)n3)C2SC1 (stereo not drawn) [Test Compound (1), 7-[2-Carboxymethoxyimino-2-(5-amino-1,2,4-thiadiazol-3-yl)acetamido]-3-azidomethyl-3-cephem-4-carboxylic acid (syn isomer)]
Proteus mirabilis 18
  MIC: 0.05 µg/mL (≈ 0.103 µM)
Proteus vulgaris 2
  MIC: 0.1 µg/mL (≈ 0.207 µM)
[1]
  dose excreted at 24 h: 26.6%
In vivo
  dose excreted at 24 h: 4.72%
